{
  "source": "patent US11185594B2",
  "about": "“(Anti-HER2 antibody)-drug conjugate” (DAIICHI SANKYO COMPANY, LIMITED, priority 2014, dated 2021)",
  "origin": "cited, not measured here",
  "key": {"human tumor": {"tested_on": "human tumor", "details": "human tumor subcutaneously transplanted mouse model"}, "topoisomerase I": {"target": "T1, topoisomerase I (Homo sapiens, UniProt P11387)", "T1 sequence (P11387 1-765)": "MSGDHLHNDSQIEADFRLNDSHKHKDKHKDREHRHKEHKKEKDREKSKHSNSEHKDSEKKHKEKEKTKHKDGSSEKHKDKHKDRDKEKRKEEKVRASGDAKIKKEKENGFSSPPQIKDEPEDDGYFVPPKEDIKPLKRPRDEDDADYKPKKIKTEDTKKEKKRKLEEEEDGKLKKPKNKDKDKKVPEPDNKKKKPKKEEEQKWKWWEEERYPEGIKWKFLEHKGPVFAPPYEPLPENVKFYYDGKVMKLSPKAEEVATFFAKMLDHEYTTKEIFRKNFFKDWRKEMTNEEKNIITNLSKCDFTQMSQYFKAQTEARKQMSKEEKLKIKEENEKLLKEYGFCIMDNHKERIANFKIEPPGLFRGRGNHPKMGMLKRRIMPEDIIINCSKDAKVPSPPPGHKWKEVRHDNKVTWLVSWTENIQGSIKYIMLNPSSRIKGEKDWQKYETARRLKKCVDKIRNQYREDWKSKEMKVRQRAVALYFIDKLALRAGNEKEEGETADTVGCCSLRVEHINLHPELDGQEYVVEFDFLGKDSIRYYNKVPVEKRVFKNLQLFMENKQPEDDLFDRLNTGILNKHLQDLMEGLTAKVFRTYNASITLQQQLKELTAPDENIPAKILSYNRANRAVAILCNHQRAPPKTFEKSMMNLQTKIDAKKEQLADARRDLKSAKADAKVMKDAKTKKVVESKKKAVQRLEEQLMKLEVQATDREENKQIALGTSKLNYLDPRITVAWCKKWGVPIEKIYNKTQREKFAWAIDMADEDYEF", "details": "compared with SN-38 and topotecan"}},
  "data": [
    {"smiles": "CC[C@@]1(O)C(=O)OCc2c1cc1n(c2=O)Cc2c-1nc1cc(F)c(C)c3c1c2[C@@H](N)CC3", "note": "[exatecan, (1S,9S)-1-amino-9-ethyl-5-fluoro-2,3-dihydro-9-hydroxy-4-methyl-1H,12H-benzo[de]pyrano[3′,4′:6,7]indolizino[1,2-b]quinoline-10,13(9H,15H)-dione]", "values": [
      {"measurement": "antitumor effect", "setting": "human tumor", "value": "potent antitumor effect"},
      {"measurement": "inhibitory activity on topoisomerase I", "setting": "topoisomerase I", "value": "higher than SN-38"},
      {"measurement": "in vitro cytocidal activity", "setting": "various cancer cells; against various cancer cells", "value": "higher in vitro cytocidal activity was confirmed"},
      {"measurement": "effect against resistant cancer cells", "setting": "various cancer cells; cancer cells resistant to SN-38 or the like due to expression of P-glycoprotein", "value": "confirmed to have the effect"}
    ]}
  ]
}
